Patent US11465987B2, “Compounds for treatment of cancer” (ONCTERNAL THERAPEUTICS, INC., priority 2012, dated 2022)
Where two headings read alike, the source gives them in different places.

What was measured:
[1] = system: LNCaP human prostate cancer cell line; test: Cytotoxicity (SRB) assay, LNCaP; assay type: cell-based; details: Homo sapiens, LNCaP
Text: (§1) Cells were stained with SRB solution.

PC-3_TxR xenograft = test: In vivo PC-3/TxR xenograft; details: PC-3/TxR mice; 17ya […], 55 30 mg/kg
[2] = system: PC-3 human prostate cancer cell line; test: cells; details: Homo sapiens
Text: as §1

CYP enzymes = test: CYP enzyme inhibition assays
[3] = Pharmacokinetic study in beagle dogs; details: Dog PK, PO 5 mg/kg
[4] = Permeability (drug-like properties)
[5] = Pharmacokinetic study in ICR mice; details: Mouse PK
[6] = system: tubulin (colchicine, vinblastine and paclitaxel binding sites); test: MS competition binding assay; details: competitive mass binding assay
Text: Each reaction was run in triplicate.

[7] = system: confluent HUVEC monolayers; test: Endothelial monolayer permeability assay; details: FITC-dextran leakage, 1, 2, 4 h
[8] = system: melanoma and prostate cancer cell lines; test: Antiproliferative activity summarised over the cell line panel (range or average); assay type: cell-based; details: read-out: IC50 range against prostate cancer cells, range over prostate cancer cell lines
[9] = Pharmacokinetic study in Sprague-Dawley rats; details: Rat PK, PO 10 mg/kg
[10] = system: PPC-1 human prostate cancer cell line; test: Cytotoxicity (SRB) assay, PPC-1; assay type: cell-based; details: Homo sapiens
Text: as §1

[11] = Rotarod test (in vivo neurotoxicity); design: species or system mouse; details: ICR mice, i.p. daily; 1h 5 or 15 mg/kg, vinblastine 0.5 mg/kg
Method: ICR mice received training three times a day for two days to enable them to stay on the rotating rod for >120 seconds at 12 rpm. Mice were then randomized by the length of time that they could stay on the rotating rod and divided into 7-8 mice per group. […] The rotarod test was performed twice a week. […] The rod speed was increased from […] to 40 rpm over a period of 5 min. Performance was measured as the length of time that a mouse could stay on the rotating rod.

[12] = system: A375MA2 melanoma cell line; test: Cytotoxicity assay, A375MA2; assay type: cell-based; details: Table 14B, n = 3; read-out: IC50 ± SEM, A375MA2
MES-SA cells = test: Growth inhibition (SRB) assay, MES-SA; assay type: cell-based; details: Homo sapiens
MES-SA/DX5 cells = test: Growth inhibition (SRB) assay, MES-SA/Dx5; assay type: cell-based; details: Homo sapiens, MES-SA/Dx5
[13] = system: OVCAR-8 human ovarian cell line; test: Cytotoxicity (SRB) assay, OVCAR-8; assay type: cell-based; details: Table 14B, parental cell line, read-out: IC50 ± SEM, OVCAR-8
HEK293-pcDNA3.1 cells = test: Cytotoxicity assay, HEK293-pcDNA3.1 (parental line of the MRP/BCRP sublines); assay type: cell-based; details: Table 14B; parental cell line; read-out: IC50 ± SEM, HEK293-pcDNA3.1
[14] = system: MDA-MB-435/LCCMDR1 multidrug-resistant melanoma cells; test: Cytotoxicity (SRB) assay, MDA-MB-435/LCCMDR1; assay type: cell-based
[15] = system: B16-F1 mouse melanoma cell line; test: Cytotoxicity (SRB) assay, B16-F1; assay type: cell-based; details: Mus musculus
[16] = system: A375 human melanoma cell line; test: Cytotoxicity (SRB) assay, A375; assay type: cell-based; details: Homo sapiens
[17] = system: WM-164 human melanoma cell line; test: Cytotoxicity (SRB) assay, WM-164; assay type: cell-based; details: Homo sapiens, n = 3, read-out: IC50 ± SEM, WM-164
[18] = system: DU 145 human prostate cancer cell line; test: Cytotoxicity (SRB) assay, DU 145; assay type: cell-based; details: Homo sapiens
Text: as §1

BCRP resistant cell line = test: Cytotoxicity in BCRP-mediated resistant cell line; details: read-out: IC50 ± SEM, HEK293-482R2
[19] = system: MDA-MB-435 parental nonresistant melanoma cells; test: Cytotoxicity (SRB) assay, MDA-MB-435; assay type: cell-based; details: Homo sapiens
PC-3 xenograft = test: In vivo PC-3 prostate tumor xenograft; details: PC-3, 0.5 mg/kg q2d, day 22
[20] = SRB assay, prostate cancer LNCaP, read-out: IC50 LNCaP
[21] = read-out: IC50 PC-3, SRB assay, prostate cancer PC-3
[22] = PPC-1, SRB assay, prostate cancer PPC-1, read-out: IC50 PPC-1

Question: Which results are given for `COc1cc(C(=O)c2csc(Nc3ccc4[nH]ccc4c3)n2)cc(OC)c1OC` [compound 55, (2-(1H-INDOL-5-YLAMINO)THIAZOL-4-YL)(3,4,5-TRIMETHOXYPHENYL)METHANONE]?
Answer: IC50 [1, 20]: 13 ± 1 nM; body weight in words (PC-3_TxR xenograft): gaining weight; IC50 ([2]; 96 h, read-out: Cytotoxicity IC50, PC-3, Table 15, mean ± SD, 96 h treatment, N = 3): 16 ± 1.5 nM; IC50 [2, 21]: 12 ± 1 nM; IC50 ([2]; read-out: IC50 in PC3, Table 16B): 28 nM; CYP enzyme inhibition in words (CYP enzymes): high IC50 values in micromolar range; F [3]: 36%; permeability in words [4]: more than adequate permeability values; t1/2 ([5]; IV 10 mg/kg): 0.767 h; F ([5]; PO 20 mg/kg): 34%; t1/2 ([5]; PO 20 mg/kg): 2.1 h; competition for tubulin binding sites in words [6]: competed effectively with colchicine; permeability of endothelial cell monolayer in words [7]: increased permeability; IC50 [8]: 7.5 to 24.1 nM; F [9]: 24%; t1/2 [9]: 5.83 ± 3.57 h; IC50 [10, 22]: 15 ± 1 nM

Question: Which IC50 [1, 20] does the source give for `CC[C@]1(O)C[C@@H]2CN(CCc3c([nH]c4ccccc34)[C@@](C(=O)OC)(c3cc4c(cc3OC)N(C)[C@H]3[C@@](O)(C(=O)OC)[C@H](OC(C)=O)[C@]5(CC)C=CCN6CC[C@]43[C@@H]65)C2)C1` [vinblastine, Vinblastine, reference compound] here?
Answer: […]

Question: What about the IC50 ([1]; Table 7, read-out: IC50, LNCaP) of the same molecule?
Answer: 3.4 ± 0.9 nM

Question: What about the “rotarod performance in words” value [11] of the same molecule?
Answer: gradually reduced the time

Question: And the IC50 ([2]; read-out: IC50, PC-3, Table 7)?
Answer: 1.4 ± 0.3 nM

Question: What about the IC50 [2, 21] of the same molecule?
Answer: 2.1 nM

Question: And the IC50 ([2]; read-out: IC50 ± SEM, PC-3, Table 21, n = 3)?
Answer: 2.1 ± 0.2 nM

Question: And the IC50 [12]?
Answer: 1 ± 0.2 nM

Question: What about the IC50 (MES-SA cells; SRB assay) of the same molecule?
Answer: 1.4 nM

Question: What about the IC50 (MES-SA cells; Table 7, parental line) of the same molecule?
Answer: 2.3 ± 0.8 nM

Question: What about the IC50 (MES-SA/DX5 cells; SRB assay) of the same molecule?
Answer: 16 nM

Question: What about the IC50 (MES-SA/DX5 cells; Table 7, P-gp over-expressed) of the same molecule?
Answer: 45.7 ± 5.3 nM

Question: What about the IC50 [13] of the same molecule?
Answer: 2 ± 0.1 nM

Question: What about the IC50 (HEK293-pcDNA3.1 cells) of the same molecule?
Answer: 5 ± 0.1 nM

Question: What about the IC50 ([14]; Homo sapiens, MDA-MB-435/LCCMDR1, read-out: IC50 MDR melanoma cell line) of the same molecule?
Answer: 277 to 658 nM

Question: What about the “P-gp substrate / multidrug resistance in words” value ([14]; MDR melanoma line vs sensitive parent line) of the same molecule?
Answer: substrates for P-glycoprotein (P-gp)

Question: What about the IC50 ([15]; B16-F1, SRB assay, mouse melanoma B16-F1, read-out: IC50 B16-F1) of the same molecule?
Answer: 4.7 nM

Question: What about the IC50 ([15]; B16-F1, Table 14A, n = 3, read-out: IC50 ± SEM, B16-F1 (converted)) of the same molecule?
Answer: 4.7 ± 0.7 nM

Question: And the IC50 ([15]; B16-F1, Table 14B, n = 3, read-out: IC50 ± SEM, B16-F1 (converted))?
Answer: 5 ± 1 nM

Question: What about the IC50 ([15]; B16-F1, Table 21, n = 3, read-out: IC50 ± SEM, B16-F1 (converted)) of the same molecule?
Answer: 4.7 ± 0.7 nM

Question: What about the IC50 ([16]; A-375, SRB assay, human melanoma A375, read-out: IC50 A375) of the same molecule?
Answer: 1 nM

Question: What about the IC50 ([16]; A-375, Table 14B, n = 3, read-out: IC50 ± SEM, A375 (converted)) of the same molecule?
Answer: 1 ± 0.1 nM

Question: And the IC50 ([17]; WM164, Table 14A)?
Answer: 0.6 ± 0.1 nM

Question: And the IC50 ([17]; WM164, Table 14B)?
Answer: 0.6 ± 0.1 nM

Question: And the IC50 ([18]; DU-145, SRB assay, prostate cancer DU 145, read-out: IC50 DU 145)?
Answer: 1.8 nM

Question: What about the IC50 ([18]; DU-145, Table 7, read-out: IC50, DU-145) of the same molecule?
Answer: 2.6 ± 1 nM

Question: And the IC50 ([18]; DU-145, Table 21, n = 3, read-out: IC50 ± SEM, Du-145)?
Answer: 1.8 ± 1.1 nM

Question: And the “competition for tubulin binding sites in words” value [6]?
Answer: did not inhibit the colchicine-tubulin binding

Question: What about the IC50 (BCRP resistant cell line) of the same molecule?
Answer: 25 ± 1 nM

Question: And the IC50 ([19]; Table 14A, sensitive parent cell line, read-out: IC50 ± SEM, MDA-MB-435 (converted))?
Answer: 0.4 ± 0.1 nM

Question: What about the IC50 ([19]; read-out: IC50 nonresistant melanoma cell line) of the same molecule?
Answer: 0.5 to 10 nM

Question: And the “% T/C” value (PC-3 xenograft)?
Answer: 29%
